According to patent US20230114241A1, “METHODS OF TREATING EPILEPSY USING THE SAME” (Trevena, Inc., priority 2019, published 2023):

How the values were obtained:
[1] = biological target: T1, human sphingosine-1-phosphate receptor 1 (S1P1) (Homo sapiens, UniProt P21453); assay: β-Arrestin2 recruitment assay (PathHunter), S1P1 CHO-K1 cells; type: cell-based; conditions: for Emax: efficacy normalized to maximum efficacy of fingolimod, read-out: hS1P1 B-arrestin2 SPAN; for EC50: β-arrestin2 recruitment, read-out: hS1P1 B-arrestin2 pEC50 (converted)
How it was run: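 CHO-K1 cells co-expressing EA-β-arrestin2 and ProLink-tagged human S1P1 plated overnight, then stimulated 60 min at 37 °C. Enzyme-fragment complementation (β-galactosidase) detected after 1 h at room temperature by luminescence; values normalized to fingolimod.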
Target sequence in this assay (P21453 whole entry, the tested form may be a part): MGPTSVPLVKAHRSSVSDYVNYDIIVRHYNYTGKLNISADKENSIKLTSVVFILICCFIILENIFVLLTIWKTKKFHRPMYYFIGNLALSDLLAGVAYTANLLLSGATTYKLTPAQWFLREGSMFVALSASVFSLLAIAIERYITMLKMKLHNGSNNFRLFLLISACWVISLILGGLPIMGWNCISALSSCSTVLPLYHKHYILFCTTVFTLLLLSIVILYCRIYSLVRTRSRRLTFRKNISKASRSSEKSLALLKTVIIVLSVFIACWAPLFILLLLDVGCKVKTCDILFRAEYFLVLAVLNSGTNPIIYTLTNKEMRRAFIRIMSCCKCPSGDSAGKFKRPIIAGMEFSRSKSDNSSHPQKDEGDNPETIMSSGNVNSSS
Target sequence in this assay (P32121 whole entry partner, the tested form may be a part): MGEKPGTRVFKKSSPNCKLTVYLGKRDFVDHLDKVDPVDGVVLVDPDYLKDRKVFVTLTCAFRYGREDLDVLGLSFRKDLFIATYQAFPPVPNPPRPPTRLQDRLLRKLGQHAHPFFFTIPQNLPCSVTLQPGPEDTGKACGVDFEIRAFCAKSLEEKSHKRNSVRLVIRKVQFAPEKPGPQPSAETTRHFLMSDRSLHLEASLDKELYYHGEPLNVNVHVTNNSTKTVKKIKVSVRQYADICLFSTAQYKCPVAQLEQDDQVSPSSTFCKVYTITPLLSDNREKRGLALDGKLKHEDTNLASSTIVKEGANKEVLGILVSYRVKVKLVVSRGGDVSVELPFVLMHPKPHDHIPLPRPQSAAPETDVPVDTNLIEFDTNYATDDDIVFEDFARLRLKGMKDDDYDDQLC

[2] = test system: peripheral blood lymphocytes; assay: Lymphopenia: peripheral blood lymphocyte counts, acute and chronic s.c. dosing; type: in vivo; conditions: 6 mg/kg sc, 7 days, c57bl/6 mice
Protocol: Compounds were tested for changes in peripheral blood lymphocytes in C57bl/6 mice. In acute studies, animals (n=5/group) were dosed subcutaneously with test compound at a dose of 3 mg/kg. Animals were sacrificed at specific time points and […] of whole blood was collected in EDTA (K2) Eppendorf tubes. Blood was stored on ice and shipped immediately overnight delivery to Charles River Laboratories for analysis. CRL ran samples through their WBC/differential panel on an Advia 120 instrument. We received peripheral lymphocyte counts (10^3 cells/μl) for each blood sample. Treatment group means were compared to a vehicle treatment group for statistical significance. In chronic studies, animals (n=6-8/group) were dosed subcutaneously for three to seven days with test compound at doses that were at least 5-fold higher than the efficacious dose in pharmacology/behavioral assays. On the last day, animals were sacrificed 45 minutes to 6 hrs after the final dose. Whole blood was collected and analyzed as described for acute studies. […]

[3] = biological target: T1, human sphingosine-1-phosphate receptor 1 (S1P1); assay: Inhibition of cAMP production (HTRF cAMP HiRange), S1P1 CHO-K1 cells; type: cell-based; conditions: for Emax: CHO-K1, efficacy normalized to maximum efficacy of fingolimod, read-out: hS1P1 CAMP SPAN; for EC50: read-out: hS1P1 CAMP pEC50 (converted)
How it was run: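 CHO-K1 cells co-expressing human S1P1 (C-terminal ProLink tag) and EA-β-arrestin2, plated overnight; after 30 min compound incubation at 37 °C, intracellular cAMP measured by HTRF TR-FRET following 1 h at room temperature. Values normalized to fingolimod.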
Target sequence in this assay (P21453 whole entry, the tested form may be a part): as the sequence (P21453 whole entry, the tested form may be a part) above

[4] = CHO-K1, β-arrestin2 recruitment
[5] = inhibition of cAMP production, potency

Row | SMILES | Emax [1, 4] [%] | EC50 ([1]; potency) [nM] | Lymphopenia effect (peripheral blood lymphocytes) [2] | Emax ([3]; inhibition of cAMP production) [%] | EC50 [3, 5] [nM] | Emax ([1]; CHO-K1) [%] | EC50 ([1]; S1P1) [nM] | Emax [3] [%] | EC50 ([3]; inhibition of cAMP production, S1P1) [nM]
1 | COc1cccc(-c2noc(-c3ccc4c(c3)nnn4C(C)C)n2)n1 [Compound 19, 5-[3-(6-methoxypyridin-2-yl)-1,2,4-oxadiazol-5-yl]-1-(propan-2-yl)-1H-1,2,3-benzotriazole] | < 75 | < 10000 | no change: 6 mg/kg, 7 days | < 75 | > 316 |  |  |  | 
2 | CCC1(CC)CC(=O)c2cc(-c3nc(-c4ccc(NC(C)=O)cc4OC)no3)ccc2O1 [Compound 531, N-{4-[5-(2,2-diethyl-4-oxo-3,4-dihydro-2H-1-benzopyran-6-yl)-1,2,4-oxadiazol-3-yl]-3-methoxyphenyl} acetamide] |  |  | no change: 6 mg/kg, 7 days |  |  | > 75 | < 10000 | > 75 | < 316
3 | Cc1cnc(-c2nc(-c3ccc4c(c3)nnn4C(C)C)no2)cn1 [Compound 234, 3-(1-isopropyl-1H-benzo[d][1,2,3]triazol-5-yl)-5-(5-methyl-pyrazin-2-yl)-1,2,4-oxadiazole] | < 75 | > 10000 | no change: 6 mg/kg, 7 days | < 75 | > 316 |  |  |  | 
4 | Cc1ccsc1-c1noc(-c2ccc3c(c2)nnn3C(C)C)n1 [Compound 169, 5-[3-(3-methyl-thiophen-2-yl)-1,2,4-oxadiazol-5-yl]-1-(propan-2-yl)-1H-1,2,3-benzotriazole] | > 75 | < 10000 | no change: 6 mg/kg, 7 days | > 75 | < 316 |  |  |  | 

Next, values leading:

Row | Emax [1, 4] [%] | EC50 ([1]; potency) [nM] | Lymphopenia effect (peripheral blood lymphocytes) [2] | Emax ([3]; inhibition of cAMP production) [%] | EC50 [3, 5] [nM] | Emax ([1]; CHO-K1) [%] | EC50 ([1]; S1P1) [nM] | Emax [3] [%] | EC50 ([3]; inhibition of cAMP production, S1P1) [nM] | SMILES
5 | > 75 | < 10000 | no change: 6 mg/kg, 7 days | > 75 | < 316 |  |  |  |  | COc1ccc(-c2noc(-c3ccc4c(c3)nnn4C(C)C)n2)c(C)c1 [Compound 55, 5-(1-isopropyl-1H-benzo[d][1,2,3]triazol-5-yl)-3-(4-methoxy-2-methylphenyl)-1,2,4-oxadiazole]
6 | > 75 |  | no change: 6 mg/kg, 7 days | > 75 | < 316 |  |  |  |  | CC(F)(F)CNc1ccc(-c2nnc(-c3ccc4[nH]ncc4c3)o2)cc1C#N [Compound 355, 2-[(2,2-difluoro-propyl)amino]-5-[5-(1H-indazol-5-yl)-1,3,4-oxadiazol-2-yl]benzonitrile]
7 | > 75 | < 10000 | no change: 6 mg/kg, 7 days | > 75 | < 316 |  |  |  |  | Cc1ccccc1-c1noc(-c2ccc3c(c2)nnn3C(C)(C)C)n1 [Compound 59, 1-tert-butyl-5-[3-(2-methylphenyl)-1,2,4-oxadiazol-5-yl]-1H-1,2,3-benzotriazole]
